Measured values as given in PubChem BioAssay AID1963830 (Molecular Pharmacology Branch, DTP, NCI, 2024).
Where “and” joins values, the source holds several entries; their conditions need not be identical. Identical values can stand only once.

Test system: 922993-354-T-J3-PDC complex spheroid viability
Assay: Anticancer human tumor 922993-354-T-J3-PDC patient-derived endometrial carcinoma cell line growth inhibition [POLQ]
Conditions: for viability, T/C: stronger effect = lower value
Protocol: Multicellular complex tumor spheroid response to Polymerase (POL) inhibitors (novobiocin, ART-558, RP6685) in combination with a variety of drugs and investigational agents in selected tumor cell lines
The POL inhibitors (novobiocin, ART-558, and RP6685) were evaluated both individually and in combination with standard of care and investigational anticancer small molecules within a complex spheroid model of solid tumors. . Complex spheroids include a stromal component modeled by human endothelial cells (HUVEC) and fibroblasts modeled by human mesenchymal stem cells (MSCs). The concentration ranges selected for each drug and investigational agent were based upon clinically achievable concentrations if the clinical Cmax of the agent was known.
Compounds. The drugs and investigational agents: novobiocin (NSC847541), ART-558 (NSC835418), RP-6685 (NSC848927), peposertib (NSC802822), ceralasertib (NSC780249), elimusertib (NSC800525), camonsertib (NSC841442), AZD-1390 (NSC803789), olaparib (NSC753686), talazoparib (NSC767125), rucaparib (NSC756644), sotorasib (NSC818433), MRTX-1133 (NSC836407), SN-38 (NSC673596), topotecan (NSC609699), epotoside (NSC141540), doxorubicin (NSC123127), gemcitabine (NSC613327), 5-fluorouracil (NSC19893), paclitaxel (NSC125973), vemurafenib (NSC761431), MSA-2 (NSC828583), SN-011 (NSC837082), adavosertib (NSC754352), prexasertib (NSC758257), carboplatin (NSC241240) and oxaliplatin (NSC266046), were obtained from the National Cancer Institute (NCI) Developmental Therapeutics Program Chemical Repository (21). The FDA-approved anticancer drug set is available from the Developmental Therapeutics Program at https://dtp.cancer.gov/organization/dscb/obtaining/. […] The stock solutions were prepared in dimethyl sulfoxide (DMSO, Sigma-Aldrich, St. Louis, MO, cat. D2650), except for the platinum compounds which were prepared in saline (Quality Biological, Gaithersburg, MD, cat. 114-055-101), at 800-fold the tested concentration and stored at -70 degrees C prior to their use. All drugs and investigational agents were tested over a range starting from a high concentration at or near the clinical Cmax and decreasing in half-log increments. If the clinical Cmax for an agent had not been determined, the highest concentration tested was 10 microM, except for SN-38, which was tested at a high concentration of 1 microM.
Cell Culture. All cells were maintained in an incubator at 37 degrees C and 5% CO2 with 95% humidity. The PDC lines were cultured according to standard operating procedures established by the NCI PDMR (https://pdmr.cancer.gov). Table 3 of the manuscript, lists the cell lines along with the number of the three cell types plated to form the mct-spheroids and media for tumor cell growth. After thawing, all PDC lines, except 997537-175-T-J1-PDC and 415267-285-R-J2-PDC, were cultured in Matrigel-coated flasks prepared with a working solution of 1X Ham's F-12 nutrient mix, without supplementation (Thermo Fisher Scientific, cat. 11765054), 100 U/mL penicillin-streptomycin (Thermo Fisher Scientific, cat. 15140122), and 2.5% Matrigel (Corning Inc., Corning, NY, cat. 354248) for the first three passages. The two PDC lines 997537-175-T-J1-PDC and 415267-285-R-J2-PDC were cultured on uncoated flasks. The 857933-349-R-J2-PDC line was cultured in 6C/Colon 1B media containing advanced DMEM/F-12 (Thermo Fisher Scientific, cat. 12634028), 10 mM HEPES (Thermo Fisher Scientific, cat. 15630080), 1X GlutaMAX supplement (Thermo Fisher Scientific, cat. 35050061), 0.1 mg/mL primocin (InvivoGen, San Diego, CA, cat. ant-pm-2), 10% defined fetal bovine serum, heat inactivated (HyClone Laboratories Inc., Logan, UT, cat. SH30070.03HI), 50% L-WRN conditioned media (ATCC, cat. CRL-3276), 1.25 mM N-Acetyl-L-cysteine (Sigma-Aldrich, cat. A9165), 10 mM nicotinamide (Sigma-Aldrich, cat. N0636), 1X B-27 supplement (Thermo Fisher Scientific, cat. 17504044), 1X N-2 supplement (Thermo Fisher Scientific, cat. […]
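Further: spheroids exposed to the agents for one week.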
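Wherever viability, T/C is given: 100% = DMSO vehicle control wells.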

CNCc1ccc(-c2[nH]c3cc(F)cc4c3c2CCNC4=O)cc1
viability, T/C (compound 0.0316 µM): 94.6% and 105% and 109% | viability, T/C (compound 0.1 µM): 96.8% and 100% and 90.3% | viability, T/C (compound 0.316 µM): 93.7% and 96% and 96.1% | viability, T/C (compound 1 µM): 105% and 97.1% and 96% | viability, T/C (compound 3.16 µM): 85.2% and 99.3% and 90.9% | viability, T/C (compound 10 µM): 86.2% and 96.2% and 71.4% | IC50 (curve of compound): > 10 µM

CC[C@@]1(O)C(=O)OCc2c1cc1n(c2=O)Cc2cc3c(CN(C)C)c(O)ccc3nc2-1
viability, T/C (compound 0.000316 µM): 92.2% and 105% and 98.3% | viability, T/C (compound 0.001 µM): 103% and 105% and 84% | viability, T/C (compound 0.00316 µM): 101% and 97.8% and 99.3% | viability, T/C (compound 0.01 µM): 98.3% and 98.7% and 106% | viability, T/C (compound 0.0316 µM): 86.9% and 98% and 91.8% | viability, T/C (compound 0.1 µM): 54.7% and 87.9% and 41.4% | IC50 (curve of compound): > 0.1 µM and 0.0827 µM

COc1cc2cc(C(=O)CCC(=O)O)sc2cc1OC + COC1C(OC(N)=O)C(O)C(Oc2ccc3c(O)c(NC(=O)c4ccc(O)c(CC=C(C)C)c4)c(=O)oc3c2C)OC1(C)C
IC50 (curve of first compound, second compound 0.0316 µM): > 10 µM | IC50 (curve of first compound, second compound 0.1 µM): > 10 µM | IC50 (curve of first compound, second compound 0.316 µM): > 10 µM | IC50 (curve of first compound, second compound 1 µM): > 10 µM | IC50 (curve of first compound, second compound 3.16 µM): > 10 µM | IC50 (curve of first compound, second compound 10 µM): > 10 µM | viability, T/C (second compound 0.0316 µM, first compound 0.0316 µM): 105% | viability, T/C (second compound 0.0316 µM, first compound 0.1 µM): 94.7% | viability, T/C (second compound 0.0316 µM, first compound 0.316 µM): 108% | viability, T/C (second compound 0.0316 µM, first compound 1 µM): 106% | viability, T/C (second compound 0.0316 µM, first compound 3.16 µM): 103% | viability, T/C (second compound 0.0316 µM, first compound 10 µM): 60.1% | viability, T/C (second compound 0.1 µM, first compound 0.0316 µM): 103% | viability, T/C (second compound 0.1 µM, first compound 0.1 µM): 110% | viability, T/C (second compound 0.1 µM, first compound 0.316 µM): 104% | viability, T/C (second compound 0.1 µM, first compound 1 µM): 105% | viability, T/C (second compound 0.1 µM, first compound 3.16 µM): 107% | viability, T/C (second compound 0.1 µM, first compound 10 µM): 73.1% | viability, T/C (second compound 0.316 µM, first compound 0.0316 µM): 111% | viability, T/C (second compound 0.316 µM, first compound 0.1 µM): 101% | viability, T/C (second compound 0.316 µM, first compound 0.316 µM): 104% | viability, T/C (second compound 0.316 µM, first compound 1 µM): 106% | viability, T/C (second compound 0.316 µM, first compound 3.16 µM): 101% | viability, T/C (second compound 0.316 µM, first compound 10 µM): 74.2% | viability, T/C (second compound 1 µM, first compound 0.0316 µM): 104% | viability, T/C (second compound 1 µM, first compound 0.1 µM): 92.3% | viability, T/C (second compound 1 µM, first compound 0.316 µM): 97.2% | viability, T/C (second compound 1 µM, first compound 1 µM): 102% | viability, T/C (second compound 1 µM, first compound 3.16 µM): 105% | viability, T/C (second compound 1 µM, first compound 10 µM): 65.1% | viability, T/C (second compound 3.16 µM, first compound 0.0316 µM): 97.4% | viability, T/C (second compound 3.16 µM, first compound 0.1 µM): 87.6% | viability, T/C (second compound 3.16 µM, first compound 0.316 µM): 100% | viability, T/C (second compound 3.16 µM, first compound 1 µM): 96.1% | viability, T/C (second compound 3.16 µM, first compound 3.16 µM): 113% | viability, T/C (second compound 3.16 µM, first compound 10 µM): 61.8% | viability, T/C (second compound 10 µM, first compound 0.0316 µM): 86.3% | viability, T/C (second compound 10 µM, first compound 0.1 µM): 75.2% | viability, T/C (second compound 10 µM, first compound 0.316 µM): 101% | viability, T/C (second compound 10 µM, first compound 1 µM): 91.4% | viability, T/C (second compound 10 µM, first compound 3.16 µM): 91.4% | viability, T/C (second compound 10 µM, first compound 10 µM): 62%

COC1C(OC(N)=O)C(O)C(Oc2ccc3c(O)c(NC(=O)c4ccc(O)c(CC=C(C)C)c4)c(=O)oc3c2C)OC1(C)C (stereo not drawn)
viability, T/C (compound 0.0316 µM): 100% [middle of 13 runs] | viability, T/C (compound 0.1 µM): 102% [middle of 13 runs] | viability, T/C (compound 0.316 µM): 98.2% [middle of 13 runs] | viability, T/C (compound 1 µM): 101% [middle of 13 runs] | viability, T/C (compound 3.16 µM): 97.6% [middle of 13 runs] | viability, T/C (compound 10 µM): 93.8% [middle of 13 runs] | IC50 (compound alone, run of 10/31/2023): > 10 µM
